Laboratory results from patent US6395750B1, “Drugs for the treatment of malignant tumors” (Active Biotech AB, priority 1999, dated 2002).
Marks after values point to notes of the source that are not given here. One block for each compound: values may come before it.

Experiments:
[1] = tested on: Dunning R-3327 AT-1 tumour; experiment: Primary screen: tumour growth inhibition, Dunning R-3327 AT-1 prostatic cancer transplanted sc; type: in vivo, rat
Procedure: The compounds of general formula (I) were assayed for their capacity to inhibit of growth of the Dunning R-3327 AT-1 tumour, a prostatic rat cancer.
R-3327 AT-1 Prostatic cancer in man is an angiogenic type of solid tumour. The Dunning R-3327 AT-1 is a prostatic cancer of the rat and suits as an experimental animal model for this disease. The AT-1 tumour is serially transplanted subcutaneously (sc) on syngeneic rats of the Copenhagen strain. Small pieces of the tumour are transplanted sc to recipient rats and treatment of the tumour bearing rats start when the tumours are easily measurable approximately on day 10 after transplantation. Doses of the compounds are given either orally or parentally 5 days a week for four weeks. The tumour growth and body weight gain are monitored during the experimental time.

[2] = Beagle Pain Syndrome, pro-inflammatory reaction (ESR, AP); type: in vivo, beagle dog; conditions: beagle dogs, five consecutive days
[3] = tested on: Dunning R-3327 rat prostatic cancers; conditions: literature report; cited from earlier work
[4] = patients with renal cell carcinoma; cited from earlier work
[5] = beagle dog, literature; cited from earlier work
[6] = 8 mg/kg ip, treatment given on Day 11

Structure (SMILES): CN(C(=O)c1c(O)c2c(Cl)cccc2n(C)c1=O)c1ccc(Cl)cc1 [B, N-methyl-N-(4-chloro-phenyl)-1,2-dihydro-4-hydroxy-5-chloro-1-methyl-2-oxo-quinoline-3-carboxamide]
% Tumour Weight Reduction ([1]; 2 mg/kg po): 28%

Structure (SMILES): CSc1cccc2c1c(O)c(C(=O)N(C)c1ccc(F)cc1F)c(=O)n2C [C, N-methyl-N-(2,4-difluoro-phenyl)-1,2-dihydro-4-hydroxy-5-thiomethyl-1-methyl-2-oxo-quinoline-3-carboxamide]
% Tumour Weight Reduction ([1]; 2 mg/kg po): 39%

AP percentage change (Day 8 - baseline) ([2]; 1 mg/kg p. o.): 25%
ESR percentage change (Day 8 - baseline) ([2]; 1 mg/kg p. o.): 177%
AP percentage change (Day 8 - baseline) ([2]; 10 mg/kg p. o.): 109%
ESR percentage change (Day 8 - baseline) ([2]; 10 mg/kg p. o.): 515%
Structure (SMILES): CCN(C(=O)c1c(O)c2c(Cl)cccc2n(C)c1=O)c1ccccc1 [Compound A, N-ethyl-N-phenyl-1,2-dihydro-4-hydroxy-5-chloro-1-methyl-2-oxo-quinoline-3-carboxamide]
% Tumour Weight Reduction ([1]; 2 mg/kg sc): 37%

Structure (SMILES): Cc1cccc2c1c(N)c(C(=O)N(C)c1ccccc1)c(=O)n2C [Compound D, N-methyl-N-phenyl-4-amino-1,2-dihydro-1,5-dimethyl-2-oxo-quinoline-3-carboxamide]
% Tumour Weight Reduction ([1]; 2 mg/kg sc): 38%

Structure (SMILES): CN(C(=O)c1c(O)c2ccccc2n(C)c1=O)c1ccccc1 [Compound E, N-methyl-N-phenyl-1,2-dihydro-4-hydroxy-1-methyl-2-oxo-quinoline-3-carboxamide]
antitumour effects [3]: antitumour effects
% Tumour Weight Reduction ([1]; 4 mg/kg sc): 30%
inhibition of growth of the Dunning R-3327 AT-1 tumour ([1]; 4 mg/kg, positive treatment control): 30%
patients withdrawn or having dose reductions due to adverse events [4]: 40%
induction of beagle pain syndrome (fever, myalgia, arthralgia, arteritis) [5]: induces the beagle pain syndrome

Structure (SMILES): COc1cccc2c1C(=O)c1c(O)c3c(c(O)c1C2=O)C[C@@](O)(C(=O)CO)C[C@@H]3O[C@H]1C[C@H](N)[C@H](O)[C@H](C)O1 [doxorubicin]
% Tumour Weight Reduction ([1]; 4 mg/kg ip, treatment given on Day 11): 0%
% Tumour Weight Reduction [1, 6]: 31^b) %
body weight effect [1, 6]: ^b)8 mg/kg of doxorubicin caused a body weight loss

Structure (SMILES): CC[C@]1(O)C[C@@H]2CN(CCc3c([nH]c4ccccc34)[C@@](C(=O)OC)(c3cc4c(cc3OC)N(C)[C@H]3[C@@](O)(C(=O)OC)[C@H](OC(C)=O)[C@]5(CC)C=CCN6CC[C@]43[C@@H]65)C2)C1 [vinblastine]
% Tumour Weight Reduction ([1]; 1 mg/kg iv, treatment given on Day 11): 0%
% Tumour Weight Reduction ([1]; 4 mg/kg iv, treatment given on Day 11): toxic
